Structures can show the parent of a compound that is named as a salt.

The target in the assay is human MAP4K4 kinase domain (Homo sapiens (Human), UniProt O95819). The assay can be described thus: MAP4K4 kinase activity, CisBio HTRF Transcreener ADP assay. Format: biochemical. As to conditions: ATP at Km (10 μM), 0.5 nM kinase domain, 2 h; read-out: MAP4K4. The source says: Compounds of the present invention were screened for their inhibitory activity against MAP4K4, versus selected off-target hits found with early members of this chemical series. MAP4K4 kinase activity was monitored using the CisBio HTRF Transcreener ADP assay, acompetitive immunoassay with a reproducible Z′>0.6. In the detection step, endogenous ADP and d2-labeled ADP compete for binding an anti-ADP monoclonal antibody labelled with Eu^3+ cryptate. A ratiometric fluorescent read-out is used at 665 and 620 nm. […] Assays were run in Greiner low volume plates with a final reaction volume of 10 μl. The MAP4K4 inhibition data are provided in Table 33 below for selected compounds of the present invention. The data has been categorised based on the IC50 value of the compound as “A”, “B” or “C”.
Chain of human MAP4K4 kinase domain (O95819 25-289): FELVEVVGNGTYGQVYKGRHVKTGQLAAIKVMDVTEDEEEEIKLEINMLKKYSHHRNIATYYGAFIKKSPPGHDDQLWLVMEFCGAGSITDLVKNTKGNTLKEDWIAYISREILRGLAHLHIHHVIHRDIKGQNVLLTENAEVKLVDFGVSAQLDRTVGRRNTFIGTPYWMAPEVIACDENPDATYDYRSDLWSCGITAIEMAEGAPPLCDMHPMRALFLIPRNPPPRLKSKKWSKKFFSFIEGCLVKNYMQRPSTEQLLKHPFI
As to `CN1CCN(c2ccc(-c3cn(-c4ccccc4)c4nc[nH]c(=O)c34)cc2)C1=O` [Ex-29], the IC50 was ≤ 100 nM. The result for `O=c1[nH]cnc2c1c(-c1ccccc1Cl)cn2-c1ccccc1` [Ex-30] reads 100 to 1000 nM; that for `CN(C)Cc1cccc(-c2cn(-c3ccccc3)c3nc[nH]c(=O)c23)c1` [Ex-31], > 1000 nM. On to `CN(Cc1cccc(-c2cn(-c3ccccc3)c3nc[nH]c(=O)c23)c1)C(=O)OC(C)(C)C` [Ex-32], for which the IC50 was in the range of 100 to 1000 nM. The result for `CN(C)CCN1CCN(c2ccc(-c3cn(-c4ccccc4)c4nc[nH]c(=O)c34)cc2)C1=O` [Ex-33] reads ≤ 100 nM; that for `O=c1[nH]cnc2c1c(-c1c(F)cccc1F)cn2-c1ccccc1` [Ex-34], 100 to 1000 nM.

For `CN1CCN(CCCOc2ccc(-c3cn(-c4ccccc4)c4nc[nH]c(=O)c34)cc2)CC1` [Ex-35], the IC50 is ≤ 100 nM. The result for `O=c1[nH]cnc2c1c(-c1ccc(OCCCO)cc1)cn2-c1ccccc1` [Ex-36] reads ≤ 100 nM. The result for `CC(C)(O)CN1CCN(c2ccc(-c3cn(-c4ccccc4)c4nc[nH]c(=O)c34)cc2)C1=O` [Ex-37] reads ≤ 100 nM. On to `O=C1COCCN1CC(O)COc1ccc(-c2cn(-c3ccccc3)c3nc[nH]c(=O)c23)cc1` (centres unmarked) [Ex-38], for which the IC50 was ≤ 100 nM.

`COc1cccc(-n2cc(-c3ccc(OCC(O)CN4CCOCC4)cc3)c3c(=O)[nH]cnc32)c1` (centres unmarked) [Ex-41, 5-[4-(2-Hydroxy-3-morpholin-4-yl-propoxy)-phenyl]-7-(3-methoxy-phenyl)-3,7-dihydro-pyrrolo[2,3-d]pyrimidin-4-one]: the IC50 was ≤ 100 nM. For the compound `O=c1[nH]cnc2c1c(-c1ccc(OCC(O)CN3CCOCC3)cc1)cn2-c1ccccc1` (centres unmarked) [Ex-42], the IC50 is ≤ 100 nM. Consider `O=c1[nH]cnc2c1c(-c1ccc(OCC(O)CN3CCOCC3)cc1)cn2-c1cccc(F)c1` (centres unmarked) [Ex-43], for which the IC50 is ≤ 100 nM. As to `O=C(NCCO)c1cccc(-c2cn(-c3ccccc3)c3nc[nH]c(=O)c23)c1` [Ex-44], the IC50 is > 1000 nM. To `O=c1[nH]cnc2c1c(-c1cccc(CO)c1)cn2-c1ccccc1` [Ex-45] belongs ≤ 100 nM. Consider `CN(C)CC(O)COc1ccc(-c2cn(-c3ccccc3)c3nc[nH]c(=O)c23)cc1` (centres unmarked) [Ex-46], for which the IC50 was ≤ 100 nM. The result for `O=c1[nH]cnc2c1c(-c1cccc(OCCO)c1)cn2-c1ccccc1` [Ex-47] reads 100 to 1000 nM; that for `CN1CCN(CC(O)COc2ccc(-c3cn(-c4ccccc4)c4nc[nH]c(=O)c34)cc2)CC1` (centres unmarked) [Ex-48], ≤ 100 nM; that for `N#Cc1cc(-c2cn(-c3ccccc3)c3nc[nH]c(=O)c23)ccc1OCC(O)CN1CCOCC1` (centres unmarked) [Ex-49], ≤ 100 nM. To `CN1CCN(CC(O)COc2ccc(-c3cn(-c4ccccc4)c4nc[nH]c(=O)c34)cc2)CC1=O` (centres unmarked) [Ex-50] belongs ≤ 100 nM. The result for `O=c1[nH]cnc2c1c(-c1ccc(OCC(O)CN3CCS(=O)(=O)CC3)cc1)cn2-c1ccccc1` (centres unmarked) [Ex-51] reads ≤ 100 nM; that for `C[C@@H](O)COc1ccc(-c2cn(-c3ccccc3)c3nc[nH]c(=O)c23)cc1` [Ex-52], ≤ 100 nM; that for `C[C@H](O)COc1ccc(-c2cn(-c3ccccc3)c3nc[nH]c(=O)c23)cc1` [Ex-53], ≤ 100 nM. In the case of `O=C1N(CCO)CCN1c1ccc(-c2cn(-c3ccccc3)c3nc[nH]c(=O)c23)cc1` [Ex-55, 5-{4-[3-(2-Hydroxy-ethyl)-2-oxo-imidazolidin-1-yl]-phenyl}-7-phenyl-3,7-dihydro-pyrrolo[2,3-d]pyrimidin-4-one], the IC50 is ≤ 100 nM. To `Cc1cc(OCCO)ccc1-c1cn(-c2ccccc2)c2nc[nH]c(=O)c12` [Ex-57] belongs ≤ 100 nM; to `O=c1[nH]cnc2c1c(-c1ccc(N3CCCC3)cc1)cn2-c1ccccc1` [Ex-62], ≤ 100 nM; to `CC(C)(C)OC(=O)NCCOc1ccc(-c2cn(-c3ccccc3)c3nc[nH]c(=O)c23)cc1` [Ex-63], 100 to 1000 nM. To `CC(C)(O)COc1ccc(-c2cn(-c3ccccc3)c3nc[nH]c(=O)c23)cc1` [Ex-64] belongs ≤ 100 nM. Regarding `COCCOc1ccc(-c2cn(-c3cccc(F)c3)c3nc[nH]c(=O)c23)cc1` [Ex-65], the IC50 was ≤ 100 nM. To `O=c1[nH]cnc2c1c(-c1ccccc1F)cn2-c1ccccc1` [Ex-66] belongs 100 to 1000 nM; to `CN1CC(COc2ccc(-c3cn(-c4ccccc4)c4nc[nH]c(=O)c34)cc2)C1` [Ex-67], 100 to 1000 nM; to `O=c1[nH]cnc2c1c(-c1ccc(OCC(O)CO)cc1)cn2-c1ccccc1` (centres unmarked) [Ex-68], ≤ 100 nM. To `O=c1[nH]cnc2c1c(-c1ccc(OCC3(O)COC3)cc1)cn2-c1ccccc1` [Ex-69] belongs ≤ 100 nM. Regarding `O=c1[nH]cnc2c1c(-c1ccc(OCCO)cc1)cn2-c1ccccc1` [Ex-70], the IC50 was ≤ 100 nM. In the case of `CC(=O)NCc1cccc(-c2cn(-c3ccccc3)c3nc[nH]c(=O)c23)c1` [Ex-71, N-[3-(4-Oxo-7-phenyl-4,7-dihydro-3H-pyrrolo[2,3-d]pyrimidin-5-yl)-benzyl]-acetamide], the IC50 lay within 100 to 1000 nM. Consider `NCc1ccc(-c2cn(-c3ccccc3)c3nc[nH]c(=O)c23)cc1` [Ex-74, 5-(4-Aminomethyl-phenyl)-7-phenyl-3,7-dihydro-pyrrolo[2,3-d]pyrimidin-4-one], for which the IC50 is 100 to 1000 nM. As for `NCc1cccc(-c2cn(-c3ccccc3)c3nc[nH]c(=O)c23)c1` [Ex-75], the IC50 was 100 to 1000 nM. The result for `NCC(=O)Nc1ccc(-c2cn(-c3ccccc3)c3nc[nH]c(=O)c23)cc1` [Ex-76] reads ≤ 100 nM; that for `CNCC(=O)Nc1ccc(-c2cn(-c3ccccc3)c3nc[nH]c(=O)c23)cc1` [Ex-77], ≤ 100 nM. With `NCCOc1ccc(-c2cn(-c3ccccc3)c3nc[nH]c(=O)c23)cc1` [Ex-78], the IC50 is ≤ 100 nM. The result for `CNCc1cccc(-c2cn(-c3ccccc3)c3nc[nH]c(=O)c23)c1` [Ex-79] reads > 1000 nM; that for `O=c1[nH]cnc2c1c(-c1ccc(OCC3CNC3)cc1)cn2-c1ccccc1` [Ex-80, 5-[4-(Azetidin-3-ylmethoxy)-phenyl]-7-phenyl-3,7-dihydro-pyrrolo[2,3-d]pyrimidin-4-one-formate salt], ≤ 100 nM.

In the case of `CNCCC(=O)Nc1ccc(-c2cn(-c3ccccc3)c3nc[nH]c(=O)c23)cc1` [Ex-81], the IC50 was ≤ 100 nM.

Take `O=C(O)Cc1ccc(-c2cn(-c3ccccc3)c3nc[nH]c(=O)c23)cc1` [Ex-82, [4-(4-Oxo-7-phenyl-4,7-dihydro-3H-pyrrolo[2,3-d]pyrimidin-5-yl)-phenyl]-acetic acid]: the IC50 is ≤ 100 nM. In the case of `NC(=O)Cc1ccc(-c2cn(-c3ccccc3)c3nc[nH]c(=O)c23)cc1` [Ex-83, 2-[4-(4-Oxo-7-phenyl-4,7-dihydro-3H-pyrrolo[2,3-d]pyrimidin-5-yl)-phenyl]-acetamide], the IC50 is ≤ 100 nM.

With `O=c1[nH]cnc2c(-c3ccc(OCCCN4CCOCC4)cc3)cn(-c3ccccc3)c12` [Ex-84, 7-[4-(3-Morpholin-4-yl-propoxy)-phenyl]-5-phenyl-3,5-dihydro-pyrrolo[3,2-d]pyrimidin-4-one], the IC50 was in the range of 100 to 1000 nM. In the case of `COc1ccc(-n2cc(-c3ccc(OCCCN(C)C)cc3)c3nc[nH]c(=O)c32)cc1` [Ex-85], the IC50 is ≤ 100 nM. With `CN1CCC(Oc2ccc(-c3cn(-c4ccccc4)c4c(=O)[nH]cnc34)cc2)CC1` [Ex-86], the IC50 is ≤ 100 nM.

For the compound `CC(C)(O)COc1ccc(-c2cn(-c3ccccc3)c3c(=O)[nH]cnc23)cc1` [Ex-87], the IC50 is > 1000 nM. To `O=c1[nH]cnc2c(-c3ccc(OCC(O)CO)cc3)cn(-c3ccccc3)c12` (centres unmarked) [Ex-88, 7-[4-(2,3-Dihydroxypropoxy)-phenyl]-5-phenyl-3,5-dihydropyrrolo[3,2-d]pyrimidin-4-one] belongs 100 to 1000 nM. To `O=c1[nH]cnc2c(-c3ccc(OCC(O)CN4CCOCC4)cc3)cn(-c3ccccc3)c12` (centres unmarked) [Ex-89] belongs 100 to 1000 nM.

As for `CN(CC(O)COc1ccc(-c2cn(-c3ccccc3)c3c(=O)[nH]cnc23)cc1)C1CC1` (centres unmarked) [Ex-90], the IC50 fell in the range of 100 to 1000 nM. To `O=c1[nH]cnc2c(-c3ccc(OCC(O)CN4CCCC4)cc3)cn(-c3ccccc3)c12` (centres unmarked) [Ex-91] belongs 100 to 1000 nM. For the compound `C[C@@H](O)COc1ccc(-c2cn(-c3ccccc3)c3c(=O)[nH]cnc23)cc1` [Ex-92], the IC50 is 100 to 1000 nM.

In the case of `C[C@H](O)COc1ccc(-c2cn(-c3ccccc3)c3c(=O)[nH]cnc23)cc1` [Ex-93], the IC50 is > 1000 nM. To `O=c1[nH]cnc2c(-c3ccc(OCC4CCNC4)cc3)cn(-c3ccccc3)c12` (centres unmarked) [Ex-94, 5-Phenyl-7-[4-(pyrrolidin-3-ylmethoxy)-phenyl]-3,5-dihydro-pyrrolo[3,2-d]pyrimidin-4-one] belongs > 1000 nM. To `CN1CCC(COc2ccc(-c3cn(-c4ccccc4)c4c(=O)[nH]cnc34)cc2)C1` (centres unmarked) [Ex-95, 7-[4-(1-Methyl-pyrrolidin-3-ylmethoxy)-phenyl]-5-phenyl-3,5-dihydro-pyrrolo[3,2-d]pyrimidin-4-one] belongs > 1000 nM; to `CCOC(=O)c1cccc(-c2cn(-c3ccccc3)c3c(=O)[nH]cnc23)c1` [Ex-96, 3-(4-Oxo-5-phenyl-4,5-dihydro-3H-pyrrolo[3,2-d]pyrimidin-7-yl)-benzoic acid ethyl ester], > 1000 nM. The result for `O=c1[nH]cnc2c(-c3ccccc3)cn(-c3ccccc3)c12` [Ex-97] reads ≤ 100 nM; that for `CCOC(=O)c1ccc(-c2cn(-c3ccccc3)c3c(=O)[nH]cnc23)cc1` [Ex-98], > 1000 nM; that for `N#Cc1ccc(-c2cn(-c3ccccc3)c3c(=O)[nH]cnc23)cc1` [Ex-99], 100 to 1000 nM. As to `N#Cc1cccc(-c2cn(-c3ccccc3)c3c(=O)[nH]cnc23)c1` [Ex-100], the IC50 fell in the range of 100 to 1000 nM.

The values are drawn from patent US11795169B2, “MAP4K4 inhibitors” (IMPERIAL COLLEGE INNOVATIONS LIMITED, priority 2017, dated 2023).
